How the values were obtained:
[1] = set-up: species or system horses (Thoroughbreds); settings: in vivo
[2] = dog, in vivo; cited from earlier work
tubulin = assay type: cell-based, dog
[3] = test system: canine glioblastoma J3T cells; test: cells; assay type: cell-based, dog; settings: Canis lupus familiaris, 72 h, read-out: mean IC50
[4] = assay type: in vivo, cat; settings: cats with CHF that received pimobendan; −561 in cats that did not; P = 0.045
[5] = assay type: in vivo, dog; settings: intravenous bolus 2 mg/kg; 2 dogs
VEGF = assay type: cell-based, cat
[6] = test system: FOSCC cell lines (SCCF1, SCCF2, SCCF3); assay type: cell-based, cat; settings: MTT assay
Bcl11b = assay type: cell-based, cat

In the case of `COc1ccc2[nH]c([S+]([O-])Cc3ncc(C)c(OC)c3C)nc2c1` (stereo not drawn) [OME, omeprazole], the gastric ulcer scores [1] is reported as “significantly decreased”.
For `N.N.[Cl][Pt][Cl]` [cisplatin], the “reported MST for invasive thyroid carcinoma” value [2] is listed as 98 days.
With `COC(=O)Nc1nc2ccc(Sc3ccccc3)cc2[nH]1` [FBZ, fenbendazole] the “tubulin depolymerization versus untreated control” value (tubulin) was “increased depolymerization of tubulin” and the IC50 [3] was 0.55 µM.
In the case of `COc1ccc(-c2nc3ccc(C4=NNC(=O)CC4C)cc3[nH]2)cc1` (stereo not drawn) [pimobendan], the “change in NT‐proBNP concentration from admission to discharge (median)” value [4] is reported as -821 pmol/L.
For `CCN(CC)CC(=O)Nc1c(C)cccc1C` [lidocaine], the “response of polymorphic ventricular tachycardia” value [5] was “no improvement was found”.
For `Cc1nc(Nc2ncc(C(=O)Nc3c(C)cccc3Cl)s2)cc(N2CCN(CCO)CC2)n1` [Dasatinib, dasatinib], the VEGF production (VEGF) was “suppressed VEGF production”, the cell viability [6] was “lowered cell viability” and the “activation (phosphorylation) of Bcl11b” value (Bcl11b) was “inhibited activation of Bcl11b”.

— publication PMC5260423 (Journal of Veterinary Internal Medicine, 2016)
